What was measured:
PA 100036 = test: Checkerboard combination study / MIC; type: cell-based, Pseudomonas aeruginosa
PA 101885 = test: Checkerboard combination study / MIC; type: cell-based, Pseudomonas aeruginosa
PA 259 = test: Checkerboard combination study / MIC; type: cell-based, Pseudomonas aeruginosa
PA 260 = test: Checkerboard combination study / MIC; type: cell-based, Pseudomonas aeruginosa
PA 264 = test: Checkerboard combination study / MIC; type: cell-based, Pseudomonas aeruginosa
PA 114228 = test: Checkerboard combination study / MIC; type: cell-based, Pseudomonas aeruginosa
[1] = test system: Galleria mellonella larvae; test: Galleria mellonella tolerability study; settings: 100 mg/kg and 200 mg/kg injected alone; after 48 h
Procedure: In vitro and in vivo discordances have been observed in antimicrobial chemotherapy, thus, therapeutic efficacy may not necessarily be reliably extrapolated based on in vitro data alone. […] Colistin (100 mg/kg), an antibiotic well known for its toxicity towards eukaryotes, served as a positive control for this experiment while PBS served as negative control. […] Survivability was scored for a total of 4 days.
In vivo larvae-infection model. In vivo synergistic effects were determined using Galleria mellonella infection model, as previously described (20). Briefly, worms were purchased from The Worm Lady® Live Feeder (ON, Canada), stored in their natural habitat at 16° C., and used within 10 days of delivery. The worms (average weight of 250 mg) were used for tolerability and efficacy studies. Tolerability study was performed by injecting 10 μL of antimicrobial agents only at concentrations equivalent to 100 mg/kg or 200 mg/kg. The worms (ten in each group) were incubated at 37° C. and monitored for 96 h. […] Overnight grown culture of respective MDR P. aeruginosa isolate was standardized to 0.5 McFarland standard and diluted in PBS to a final concentration of […]. 10 μL of this solution (5 CFU) was injected into each worm and incubated for 3 h at 37° C. […] Worms treated with 10 μL PBS or high concentrations of test antibiotics served as negative and positive control, respectively. The worms were incubated at 37° C. in Petri dishes lined with filter paper and scored for survivability every 6 h for up to 48 h. This experiment was repeated to give a total of thirty worms (n=30) in each case. Survival data curves were plotted using Kaplan-Meier survival analysis.

Substance: 5-O-(Octylcyclam)-tobramycin.9TFA [Compound 2]
- MICCombination (2) (PA 100036; MIC of 2 combined with AZT): 8 µg/mL
- MICCombination (2) (PA 100036; MIC of 2 combined with CAZ): 8 µg/mL
- MICCombination (2) (PA 100036; MIC of 2 combined with CEF): 16 µg/mL
- MICCombination (2) (PA 100036; MIC of 2 combined with DOR): 16 µg/mL
- MICCombination (2) (PA 100036; MIC of 2 combined with MER): 2 µg/mL
- MICCombination (2) (PA 100036; MIC of 2 combined with PIP): 16 µg/mL
- FIC2 (PA 100036; with AZT): <0.0313
- FIC2 (PA 100036; with CAZ): <0.0313
- FIC2 (PA 100036; with CEF): <0.0625
- FIC2 (PA 100036; with DOR): <0.0625
- FIC2 (PA 100036; with MER): <0.0078
- FIC2 (PA 100036; with PIP): <0.0625
- MICCombination (2) (PA 101885; MIC of 2 combined with AZT): 16 µg/mL
- MICCombination (2) (PA 101885; MIC of 2 combined with CAZ): 8 µg/mL
- MICCombination (2) (PA 101885; MIC of 2 combined with CEF): 16 µg/mL
- MICCombination (2) (PA 101885; MIC of 2 combined with DOR): 4 µg/mL
- MICCombination (2) (PA 101885; MIC of 2 combined with MER): 8 µg/mL
- MICCombination (2) (PA 101885; MIC of 2 combined with PIP): 16 µg/mL
- FIC2 (PA 101885; with AZT): <0.0625
- FIC2 (PA 101885; with CAZ): <0.0313
- FIC2 (PA 101885; with CEF): <0.0625
- FIC2 (PA 101885; with DOR): <0.0156
- FIC2 (PA 101885; with MER): <0.0313
- FIC2 (PA 101885; with PIP): <0.0625
- MICCombination (2) (PA 259; MIC of 2 combined with AZT): 16 µg/mL
- MICCombination (2) (PA 259; MIC of 2 combined with CAZ): 16 µg/mL
- MICCombination (2) (PA 259; MIC of 2 combined with CEF): 16 µg/mL
- MICCombination (2) (PA 259; MIC of 2 combined with MER): 16 µg/mL
- MICCombination (2) (PA 259; MIC of 2 combined with PIP): 1 µg/mL
- FIC2 (PA 259; with AZT): <0.0625
- FIC2 (PA 259; with CAZ): <0.0625
- FIC2 (PA 259; with CEF): <0.0625
- FIC2 (PA 259; with MER): <0.0625
- FIC2 (PA 259; with PIP): <0.0039
- MICCombination (2) (PA 260; MIC of 2 combined with AZT): 16 µg/mL
- MICCombination (2) (PA 260; MIC of 2 combined with CAZ): 4 µg/mL
- MICCombination (2) (PA 260; MIC of 2 combined with CEF): 8 µg/mL
- MICCombination (2) (PA 260; MIC of 2 combined with DOR): 8 µg/mL
- MICCombination (2) (PA 260; MIC of 2 combined with MER): 8 µg/mL
- MICCombination (2) (PA 260; MIC of 2 combined with PIP): 16 µg/mL
- FIC2 (PA 260; with AZT): <0.0625
- FIC2 (PA 260; with CAZ): <0.0156
- FIC2 (PA 260; with CEF): <0.0313
- FIC2 (PA 260; with DOR): <0.0313
- FIC2 (PA 260; with MER): <0.0313
- FIC2 (PA 260; with PIP): <0.0625
- MICCombination (2) (PA 264; MIC of 2 combined with AZT): 8 µg/mL
- MICCombination (2) (PA 264; MIC of 2 combined with CAZ): 8 µg/mL
- MICCombination (2) (PA 264; MIC of 2 combined with CEF): 16 µg/mL
- MICCombination (2) (PA 264; MIC of 2 combined with DOR): 4 µg/mL
- MICCombination (2) (PA 264; MIC of 2 combined with MER): 4 µg/mL
- MICCombination (2) (PA 264; MIC of 2 combined with PIP): 4 µg/mL
- FIC2 (PA 264; with AZT): <0.0313
- FIC2 (PA 264; with CAZ): <0.0313
- FIC2 (PA 264; with CEF): <0.0625
- FIC2 (PA 264; with DOR): <0.0156
- FIC2 (PA 264; with MER): <0.0156
- FIC2 (PA 264; with PIP): <0.0156
- MICCombination (2) (PA 114228; MIC of 2 combined with AZT): 4 µg/mL
- MICCombination (2) (PA 114228; MIC of 2 combined with CAZ): 16 µg/mL
- MICCombination (2) (PA 114228; MIC of 2 combined with CEF): 4 µg/mL
- MICCombination (2) (PA 114228; MIC of 2 combined with DOR): 4 µg/mL
- MICCombination (2) (PA 114228; MIC of 2 combined with MER): 8 µg/mL
- MICCombination (2) (PA 114228; MIC of 2 combined with PIP): 0.5 µg/mL
- FIC2 (PA 114228; with AZT): <0.0156
- FIC2 (PA 114228; with CAZ): <0.0625
- FIC2 (PA 114228; with CEF): <0.0156
- FIC2 (PA 114228; with DOR): <0.0156
- FIC2 (PA 114228; with MER): <0.0313
- FIC2 (PA 114228; with PIP): <0.0020
- survival of larvae [1]: 100%
